ChEMBL document CHEMBL6177998, “Rational Design of Dual Degraders by Incorporating Molecular Glue Structural Features into PROTAC Degraders” (J Med Chem, 2025)

Tests used:
Format in all cases: cell-based
[1] = biological target: T1, Protein cereblon/Androgen receptor (Homo sapiens, UniProt P10275+Q96SW2); test: PROTAC activity at CRBN/AR in human 22Rv1 cells assessed as induction of AR degradation at 1 uM incubated for 24 hrs by Western blot analysis relative to control
[2] = biological target: T1, Protein cereblon/Androgen receptor; test: PROTAC activity at CRBN/AR in human 22Rv1 cells assessed as induction of AR degradation at 5 uM incubated for 24 hrs by Western blot analysis relative to control
[3] = test system: Protein cereblon/Androgen receptor (Homo sapiens), P10275+Q96SW2 [UNDEFINED MUTATION]; test: PROTAC activity at CRBN/Androgen receptor splice variant 7 in human 22Rv1 cells assessed as induction of AR-V7 degradation at 1 uM incubated for 24 hrs by Western blot analysis relative to control
[4] = test system: Protein cereblon/Androgen receptor (Homo sapiens), P10275+Q96SW2 [UNDEFINED MUTATION]; test: PROTAC activity at CRBN/Androgen receptor splice variant 7 in human 22Rv1 cells assessed as induction of AR-V7 degradation at 5 uM incubated for 24 hrs by Western blot analysis relative to control
[5] = biological target: T1, Protein cereblon/Androgen receptor; test: PROTAC activity at CRBN/AR in human VCaP cells assessed as induction of AR degradation at 1 uM incubated for 24 hrs by Western blot analysis relative to control
[6] = biological target: T1, Protein cereblon/Androgen receptor; test: PROTAC activity at CRBN/AR in human VCaP cells assessed as induction of AR degradation at 5 uM incubated for 24 hrs by Western blot analysis relative to control
[7] = test system: Protein cereblon/Androgen receptor (Homo sapiens), P10275+Q96SW2 [UNDEFINED MUTATION]; test: PROTAC activity at CRBN/Androgen receptor splice variant 7 in human VCaP cells assessed as induction of AR-V7 degradation at 1 uM incubated for 24 hrs by Western blot analysis relative to control
[8] = test system: Protein cereblon/Androgen receptor (Homo sapiens), P10275+Q96SW2 [UNDEFINED MUTATION]; test: PROTAC activity at CRBN/Androgen receptor splice variant 7 in human VCaP cells assessed as induction of AR-V7 degradation at 5 uM incubated for 24 hrs by Western blot analysis relative to control
[9] = biological target: T2, Protein cereblon/Eukaryotic peptide chain release factor GTP-binding subunit ERF3A (Homo sapiens, UniProt Q96SW2+P15170); test: Molecular glue activity at CRBN/GSPT1 in human 22Rv1 cells assessed as induction of GSPT1 degradation at 1 uM incubated for 24 hrs by Western blot analysis relative to control
[10] = biological target: T2, Protein cereblon/Eukaryotic peptide chain release factor GTP-binding subunit ERF3A; test: Molecular glue activity at CRBN/GSPT1 in human 22Rv1 cells assessed as induction of GSPT1 degradation at 5 uM incubated for 24 hrs by Western blot analysis relative to control

T2 sequence (P15170 whole entry, looked up): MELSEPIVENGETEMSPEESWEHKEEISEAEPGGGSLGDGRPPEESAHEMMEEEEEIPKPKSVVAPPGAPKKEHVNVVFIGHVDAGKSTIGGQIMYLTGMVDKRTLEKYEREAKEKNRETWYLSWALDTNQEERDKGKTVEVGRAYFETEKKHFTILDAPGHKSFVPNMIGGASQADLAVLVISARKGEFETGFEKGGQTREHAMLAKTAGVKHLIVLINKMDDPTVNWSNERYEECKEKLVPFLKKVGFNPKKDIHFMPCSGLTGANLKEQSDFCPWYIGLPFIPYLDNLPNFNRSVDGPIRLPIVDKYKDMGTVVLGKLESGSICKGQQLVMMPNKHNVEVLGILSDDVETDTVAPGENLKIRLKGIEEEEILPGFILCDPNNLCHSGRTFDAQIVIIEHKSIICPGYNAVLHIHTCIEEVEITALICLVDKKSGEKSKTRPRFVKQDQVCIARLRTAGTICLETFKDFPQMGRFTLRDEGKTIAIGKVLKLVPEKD
T2 sequence (Q96SW2 whole entry, looked up): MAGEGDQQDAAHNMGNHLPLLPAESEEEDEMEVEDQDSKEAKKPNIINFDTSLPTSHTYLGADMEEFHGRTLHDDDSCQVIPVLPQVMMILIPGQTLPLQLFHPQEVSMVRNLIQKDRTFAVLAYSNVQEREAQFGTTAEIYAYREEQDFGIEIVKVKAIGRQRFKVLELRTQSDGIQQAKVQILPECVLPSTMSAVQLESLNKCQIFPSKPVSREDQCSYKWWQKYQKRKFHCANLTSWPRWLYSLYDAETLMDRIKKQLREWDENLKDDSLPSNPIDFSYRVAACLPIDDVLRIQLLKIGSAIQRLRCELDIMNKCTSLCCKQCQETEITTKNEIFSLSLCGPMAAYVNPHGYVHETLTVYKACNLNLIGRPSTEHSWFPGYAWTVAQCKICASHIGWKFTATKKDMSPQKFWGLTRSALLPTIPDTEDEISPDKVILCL
T1 sequence (P10275 whole entry, looked up): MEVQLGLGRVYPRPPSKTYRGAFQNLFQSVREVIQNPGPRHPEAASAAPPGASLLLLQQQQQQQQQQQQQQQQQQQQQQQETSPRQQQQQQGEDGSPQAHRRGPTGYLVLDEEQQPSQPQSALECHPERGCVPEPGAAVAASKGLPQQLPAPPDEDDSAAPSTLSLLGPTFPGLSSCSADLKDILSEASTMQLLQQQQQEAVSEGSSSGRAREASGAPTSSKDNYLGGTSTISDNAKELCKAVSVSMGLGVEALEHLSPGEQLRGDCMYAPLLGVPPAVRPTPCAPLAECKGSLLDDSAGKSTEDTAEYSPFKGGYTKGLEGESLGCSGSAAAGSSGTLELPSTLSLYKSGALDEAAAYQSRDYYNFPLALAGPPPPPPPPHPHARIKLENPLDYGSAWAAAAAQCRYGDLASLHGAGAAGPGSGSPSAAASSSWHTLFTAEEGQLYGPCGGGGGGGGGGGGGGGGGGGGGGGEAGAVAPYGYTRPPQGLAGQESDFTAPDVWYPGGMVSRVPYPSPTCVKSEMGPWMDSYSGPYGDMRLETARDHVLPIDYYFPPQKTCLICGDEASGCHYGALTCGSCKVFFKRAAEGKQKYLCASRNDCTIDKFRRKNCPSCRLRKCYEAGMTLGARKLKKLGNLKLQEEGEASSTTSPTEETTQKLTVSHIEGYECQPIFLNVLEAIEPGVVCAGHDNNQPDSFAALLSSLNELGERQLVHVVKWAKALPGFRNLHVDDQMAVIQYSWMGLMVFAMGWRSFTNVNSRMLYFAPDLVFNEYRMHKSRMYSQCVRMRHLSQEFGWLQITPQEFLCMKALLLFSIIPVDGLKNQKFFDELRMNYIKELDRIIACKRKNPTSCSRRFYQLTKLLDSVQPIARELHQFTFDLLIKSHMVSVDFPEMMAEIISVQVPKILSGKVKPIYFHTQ
T1 sequence (Q96SW2 whole entry, looked up): as the sequence (Q96SW2 whole entry, looked up) above
Sequence of Protein cereblon/Androgen receptor (Homo sapiens), P10275+Q96SW2 [UNDEFINED MUTATION] (P10275 whole entry, looked up, change not shown, canonical isoform): as the sequence (P10275 whole entry, looked up) above
Sequence of Protein cereblon/Androgen receptor (Homo sapiens), P10275+Q96SW2 [UNDEFINED MUTATION] (Q96SW2 whole entry, looked up, change not shown, canonical isoform): as the sequence (Q96SW2 whole entry, looked up) above

| Activity [1] [%] | Activity [2] [%] | Activity [3] [%] | Activity [4] [%] | Activity [5] [%] | Activity [6] [%] | Activity [7] [%] | Activity [8] [%] | Activity [9] [%] | Activity [10] [%] | SMILES |
| --- | --- | --- | --- | --- | --- | --- | --- | --- | --- | --- |
| 5.8 | 43.6 | 29.9 | 67.4 | 5.9 | 20 | < 5 | 34 | 86.1 | 95.5 | CC(C)(c1ccc(OCC2CCN(C(=O)CCCCCOc3ccc4c(c3)C(=O)N(C3CCC(=O)NC3=O)C4=O)CC2)cc1)c1ccc(OC[C@H](O)CCl)cc1 (stereo not given in full) |
| < 5 | 32.3 | 33.3 | 56 | < 5 | < 5 | < 5 | < 5 | 29.6 | 44.4 | CC(C)(c1ccc(OCC2CCN(C(=O)CCCCOc3ccc4c(c3)C(=O)N(C3CCC(=O)NC3=O)C4=O)CC2)cc1)c1ccc(OC[C@H](O)CCl)cc1 (stereo not given in full) |
| < 5 | < 5 | 5 | < 5 | 32.7 | 19.8 | 20 | 11.9 | 14.4 | 15.5 | CC(C)(c1ccc(OCC2CCN(C3CN(C(=O)CCNc4ccc5c(c4)C(=O)N(C4CCC(=O)NC4=O)C5=O)C3)CC2)cc1)c1ccc(OC[C@H](O)CCl)cc1 (stereo not given in full) |
| 10.1 | 38 | < 5 | 11 | < 5 | < 5 | < 5 | 9.2 | 36.5 | 39.8 | CC(C)(c1ccc(OCC2CCN(C(=O)CCCCCCNc3cccc4c3C(=O)N(C3CCC(=O)NC3=O)C4=O)CC2)cc1)c1ccc(OC[C@H](O)CCl)cc1 (stereo not given in full) |
| < 5 | < 5 | < 5 | < 5 | < 5 | < 5 | < 5 | < 5 | 37 | 60.9 | CC(C)(c1ccc(OCC2CCN(C3CN(C(=O)CNc4ccc5c(c4)C(=O)N(C4CCC(=O)NC4=O)C5=O)C3)CC2)cc1)c1ccc(OC[C@H](O)CCl)cc1 (stereo not given in full) |
| 12.1 | 10.2 | 5 | < 5 | 6.8 | 25.4 | < 5 | 24.2 | 57.5 | 76.7 | CC(C)(c1ccc(OCC2CCN(C3CN(C(=O)CCCNc4ccc5c(c4)C(=O)N(C4CCC(=O)NC4=O)C5=O)C3)CC2)cc1)c1ccc(OC[C@H](O)CCl)cc1 (stereo not given in full) |
| 13.5 | < 5 | 5 | < 5 | 17.7 | 40.9 | 14.9 | 6.4 | 33.8 | 41.2 | CC(C)(c1ccc(OCC2CCN(C3CN(C(=O)CCCCNc4ccc5c(c4)C(=O)N(C4CCC(=O)NC4=O)C5=O)C3)CC2)cc1)c1ccc(OC[C@H](O)CCl)cc1 (stereo not given in full) |
| 14.4 | 33.1 | 8.6 | 30.7 | < 5 | 14.2 | < 5 | < 5 | 81 | 79.8 | CC(C)(c1ccc(OCC2CCN(C(=O)CCCCCCNc3ccc4c(c3)C(=O)N(C3CCC(=O)NC3=O)C4=O)CC2)cc1)c1ccc(OC[C@H](O)CCl)cc1 (stereo not given in full) |
| 20.1 | 16.4 | 34.4 | 33.9 | < 5 | 8 | < 5 | < 5 | 77.9 | 92.7 | CC(C)(c1ccc(OCC2CCN(C(=O)CCCCCCOc3ccc4c(c3)C(=O)N(C3CCC(=O)NC3=O)C4=O)CC2)cc1)c1ccc(OC[C@H](O)CCl)cc1 (stereo not given in full) |
| 12.4 | 22.3 | 20.1 | 27.1 | < 5 | < 5 | < 5 | < 5 | 39.6 | 47.1 | CC(C)(c1ccc(OCC2CCN(C(=O)CCCCNc3cccc4c3C(=O)N(C3CCC(=O)NC3=O)C4=O)CC2)cc1)c1ccc(OC[C@H](O)CCl)cc1 (stereo not given in full) |
| 11.7 | 19.7 | 28.4 | 25.5 | < 5 | 11.7 | 21.6 | 36.1 | 65.1 | 68.9 | CC(C)(c1ccc(OCC2CCN(C(=O)CCCCCNc3cccc4c3C(=O)N(C3CCC(=O)NC3=O)C4=O)CC2)cc1)c1ccc(OC[C@H](O)CCl)cc1 (stereo not given in full) |
| 8.6 | 21.6 | 11.8 | 9.3 | 8.5 | 13.7 | 5.9 | 8.2 | 86 | 89.3 | CC(C)(c1ccc(OCC2CCN(C(=O)CCCCNc3ccc4c(c3)C(=O)N(C3CCC(=O)NC3=O)C4=O)CC2)cc1)c1ccc(OC[C@H](O)CCl)cc1 (stereo not given in full) |
| 13.7 | < 5 | 34.8 | 14.6 | < 5 | 18.6 | < 5 | 26.4 | 25.5 | 30.7 | CC(C)(c1ccc(OCC2CCN(C(=O)CCCCC#Cc3ccc4c(c3)C(=O)N(C3CCC(=O)NC3=O)C4=O)CC2)cc1)c1ccc(OC[C@H](O)CCl)cc1 (stereo not given in full) |
| < 5 | 7.5 | < 5 | < 5 | 4.9 | 10.2 | < 5 | 7 | 37.2 | 42 | CC(C)(c1ccc(OCC2CCN(C(=O)CCCCCCCNc3ccc4c(c3)C(=O)N(C3CCC(=O)NC3=O)C4=O)CC2)cc1)c1ccc(OC[C@H](O)CCl)cc1 (stereo not given in full) |
| 7.8 | 25 | 12.5 | 52.3 | < 5 | < 5 | 8.4 | 14.3 | 32.3 | 45.8 | CC(C)(c1ccc(OCC2CCN(C(=O)CCCCCCCNc3cccc4c3C(=O)N(C3CCC(=O)NC3=O)C4=O)CC2)cc1)c1ccc(OC[C@H](O)CCl)cc1 (stereo not given in full) |
| 24.6 | < 5 | 48.2 | 18.1 | 8.4 | < 5 | 7.4 | 5.2 | 28.5 | 34 | CC(C)(c1ccc(OCC2CCN(C(=O)CCCC#Cc3ccc4c(c3)C(=O)N(C3CCC(=O)NC3=O)C4=O)CC2)cc1)c1ccc(OC[C@H](O)CCl)cc1 (stereo not given in full) |
